Publication PMC8483441 (Journal of Medicinal Chemistry, 2021)
In brackets after ≈: the same amount, converted by molar mass. Square brackets hold non-standard residues; d marks the D form. Peptide text beside a SMILES is read from it. dOrn = NCCC[C@@H](N)C(=O)O; Orn = NCCC[C@H](N)C(=O)O

Key:
Pseudomonas sp. [1] = test: MIC, broth microdilution; format: cell-based; conditions: Pseudomonas sp. ATCC 15915; Mueller-Hinton medium, 5 × 10^5 CFU/mL, 37 °C, 24 h; average of three independent studies
Method: (§1) Human serum was purchased from Sigma (St Louis, USA).
(§2) Incubations were kept at 37 °C for 24 h. Results are the average of three independent studies.

E. coli = format: cell-based, Escherichia coli; conditions: 24 h
Method: as §1, §2

Escherichia coli = format: cell-based; conditions: 24 h
Method: as §2

Acinetobacter baumannii = format: cell-based; conditions: 50 μL from MIC wells seeded into Petri plates, 24 h; lowest concentration without detectable growth
Method: as §2

Salmonella enterica = format: cell-based; conditions: 24 h
Method: as §2

horse red blood cells = test: Hemolytic activity; format: cell-based; conditions: red cells of horse, 4 h, 250
Method: The peptide toxicity was determined detecting the disruption of horse red blood cells, following a previous assay report.[35] 10-fold diluted cells in PBS were centrifuged three times at 800g to eliminate the hemoglobin from disrupted cells. After the last resuspension, erythrocytes were incubated with the peptides for 4 h at 37 °C. The detection was done measuring the supernatant absorbance in a VICTOR3 multilabel plate reader (Perkin Elmer, Waltham, Massachusetts) at 540 nm in a microplate reader. Percentage of hemolysis was calculated through a pattern done with dilutions of total cell lysis done with a 1% Triton X-100 buffer. Results are the average of three independent studies.

Pseudomonas sp. [2] = test: Minimum bactericidal concentration (MBC); format: cell-based; conditions: 50 μL from MIC wells seeded into Petri plates, 24 h; lowest concentration without detectable growth
Method: as §2

Shigella flexneri = conditions: 50 μL from MIC wells seeded into Petri plates, 24 h; lowest concentration without detectable growth
Method: The antibiotic activity was defined by the minimum peptide concentration where the microorganism is unable to grow. The assay was done in polypropylene 96-well plates (Greiner, Frickenhausen, Germany) to avoid peptide binding to plate wells. Peptides were dissolved in water containing 0.4% w/v bovine serum albumin (BSA) and 0.02% v/v glacial acetic acid to prevent self-aggregation, following the reference protocol by Wiegand et al.,[42] based on the classical microtiter broth dilution recommended by the National Committee of Laboratory Safety and Standards (NCLSS). Initial bacteria inoculum was adjusted to 5 × 10^5 CFU/mL in Mueller-Hinton (MH) medium. Incubations were kept at 37 °C for 24 h. Results are the average of three independent studies. […] To determine the MBC, 50 μL from all wells were seeded into Petri plates and incubated for 24 h. The MBC concentration was attributed to the lowest concentration without detectable bacterial growth for each peptide.

S. typhimurium 324 = test: MIC, clinical bacterial strain; format: cell-based
Method: as §1, §2

S. typhimurium 365 = test: MIC, clinical bacterial strain; format: cell-based
Method: as §1, §2

A. baumannii 3879 = test: MIC, clinical bacterial strain; format: cell-based
Method: as §1, §2

E. coli 116878 = test: MIC, clinical bacterial strain; format: cell-based
Method: as §1, §2

E. coli cf073 = test: MIC, clinical bacterial strain; format: cell-based
Method: as §1, §2

P. aeruginosa 827632 = test: MIC, clinical bacterial strain; format: cell-based
Method: as §1, §2

A. baumannii 3862 = test: MIC, clinical bacterial strain; format: cell-based
Method: as §1, §2

A. baumannii 3880 = test: MIC, clinical bacterial strain; format: cell-based
Method: as §1, §2

A. baumannii 3878 = test: MIC, clinical bacterial strain; format: cell-based
Method: as §1, §2

P. aeruginosa 827651 = test: MIC, clinical bacterial strain; format: cell-based
Method: as §1, §2

S. enterica = format: cell-based, Salmonella enterica; conditions: 24 h
Method: as §1, §2

S. flexneri = conditions: 24 h
From the text: Purified horse red blood cells were acquired from Thermo Fisher Scientific (Hampshire, England). Human serum was purchased from Sigma (St Louis, USA). E. coli was obtained from the Coli Genetic Stock Center (BW25113). S. flexneri (ATCC 29903), A. baumannii (ATCC 15308), Pseudomonas sp. (ATCC 15915), and S. enterica (ATCC 14028) were obtained from the CECT (Valencia, Spain). Clinical strains were supplied by the Vall d’Hebron Hospital (Barcelona, Spain). MRC5 fibroblasts were obtained from the Cytometry and Cell Culture Facility (SCAC, UAB) and originally purchased from ATCC.
The antibiotic activity was defined by the minimum peptide concentration where the microorganism is unable to grow. The assay was done in polypropylene 96-well plates (Greiner, Frickenhausen, Germany) to avoid peptide binding to plate wells. Peptides were dissolved in water containing 0.4% w/v bovine serum albumin (BSA) and 0.02% v/v glacial acetic acid to prevent self-aggregation, following the reference protocol by Wiegand et al.,[42] based on the classical microtiter broth dilution recommended by the […]. Initial bacteria inoculum was adjusted to 5 × 10^5 CFU/mL in Mueller-Hinton (MH) medium. Incubations were kept at 37 °C for 24 h. Results are the average of three independent studies. MIC assays in the presence of serum were performed by incubating the peptide with human serum at a 1:1 ratio. Then, 10^6 cfu/mL of Pseudomonas sp. were incubated with serial dilutions of the peptides for 4 h. To determine the MBC, 50 μL from all wells were seeded into Petri plates and incubated for 24 h. The MBC concentration was attributed to the lowest concentration without detectable bacterial growth for each peptide.

MRC-5 cells = test: Cytotoxicity in mammalian cells (MTT assay); format: cell-based; conditions: 4 h
Method: (§3) MRC-5 cells were grown in Eagle’s minimum essential medium (MEMα), supplemented with 10% fetal bovine serum (FBS). 96-well plates were seeded with 3 × 10^4 cells/well and cultured overnight in order to get cells adhered into the plate and then incubated with two-fold peptide serial dilutions. After 4 h of incubation, the medium containing the peptides was replaced by MEMα supplemented with FBS and 3-(4,5-dimethylthiazol-2-yl)-2,5-diphenyltetrazolium bromide (MTT) at 0.4 mg/mL and incubated for 150 min. Detection of formazan crystals in the living cells was done by cell disruption by addition of 200 μL of dimethyl sulfoxide (DMSO) followed by absorbance measuring at 600 nm in a Tecan Infinite F Nano+ microplate reader (Tecan, Germany). Results are the average of three independent studies.

[3] = Cytotoxicity in mammalian cells (MTT assay); format: cell-based; conditions: MRC-5 cytotoxicity (IC50)
Method: as §3

A. baumannii = format: cell-based, Acinetobacter baumannii; conditions: A. baumannii ATCC 15308; Mueller-Hinton medium, 5 × 10^5 CFU/mL, 37 °C, 24 h; average of three independent studies
Method: as §1, §2

In the case of `CC[C@H](C)[C@H](NC(=O)[C@H](C)NC(=O)[C@H](CCCN)NC(=O)[C@H](CCSC)NC(=O)[C@H](C)NC(=O)[C@@H](NC(=O)[C@@H](NC(=O)[C@H](CCCN)NC(=O)[C@@H]1CCCN1C(=O)[C@H](CO)NC(=O)[C@@H](NC(=O)[C@H](Cc1c[nH]cn1)NC(=O)[C@H](CCC(N)=O)NC(=O)[C@@H](NC(=O)[C@H](C)NC(=O)[C@H](Cc1ccccc1)NC(=O)[C@H](Cc1c[nH]c2ccccc12)NC(=O)[C@H](CCC(N)=O)NC(=O)[C@H](C)NC(=O)[C@H](CCCN)NC(=O)[C@@H](NC(=O)[C@H](Cc1ccccc1)NC(=O)[C@H]1CCCN1C(=O)[C@H](N)CCCN)[C@@H](C)O)[C@@H](C)CC)[C@@H](C)CC)[C@@H](C)O)[C@@H](C)CC)C(=O)N[C@@H](CC(N)=O)C(=O)N[C@@H](CC(N)=O)C(=O)N[C@@H](Cc1ccc(O)cc1)C(=O)N[C@@H](CCCN)C(=O)N[C@@H](Cc1c[nH]c2ccccc12)C(=O)N[C@@H](CCCN)C(N)=O` [peptide 7] (H-[dOrn][dP]FT[Orn]AQWFAIQHISP[Orn]TIAM[Orn]AINNY[Orn]W[Orn]-NH2), the “MIC Pseudomonas sp.” value (Pseudomonas sp. [1]) is reported as 1.56 µM (≈ 5.47 µg/mL), the “MIC E. coli” value (E. coli) is reported as 3.13 µM (≈ 11 µg/mL) and the “MBC Escherichia coli” value (Escherichia coli) is reported as 3.13 µM (≈ 11 µg/mL). For the same compound, the “MBC Acinetobacter baumannii” value (Acinetobacter baumannii) was 6.25 µM (≈ 21.9 µg/mL), the “MBC Salmonella enterica” value (Salmonella enterica) was 25 µM (≈ 87.6 µg/mL) and the “hemolysis % (250 μM peptide)” value (horse red blood cells) was 3.6 ± 0.7%. The “MBC Pseudomonas sp.” value (Pseudomonas sp. [2]) was 1.56 µM (≈ 5.47 µg/mL), the “MBC Shigella flexneri” value (Shigella flexneri) was 6.25 µM (≈ 21.9 µg/mL) and the “MIC S. typhimurium 324” value (S. typhimurium 324) was 25 µM (≈ 87.6 µg/mL). For the same compound, the “MIC S. typhimurium 365” value (S. typhimurium 365) was 25 µM (≈ 87.6 µg/mL), the “MIC A. baumannii 3879” value (A. baumannii 3879) was 1.56 µM (≈ 5.47 µg/mL) and the “MIC E. coli 116878” value (E. coli 116878) was 6.25 µM (≈ 21.9 µg/mL). For the same compound, the “MIC E. coli cf073” value (E. coli cf073) was 3.13 µM (≈ 11 µg/mL), the “MIC P. aeruginosa 827632” value (P. aeruginosa 827632) was 25 µM (≈ 87.6 µg/mL) and the “MIC A. baumannii 3862” value (A. baumannii 3862) was 0.78 µM (≈ 2.73 µg/mL). The “MIC A. baumannii 3880” value (A. baumannii 3880) was 6.25 µM (≈ 21.9 µg/mL), the “MIC A. baumannii 3878” value (A. baumannii 3878) was 0.78 µM (≈ 2.73 µg/mL) and the “MIC P. aeruginosa 827651” value (P. aeruginosa 827651) was 100 µM (≈ 351 µg/mL). For the same compound, the “MIC S. enterica” value (S. enterica) was 25 µM (≈ 87.6 µg/mL), the “MIC S. flexneri” value (S. flexneri) was 6.25 µM (≈ 21.9 µg/mL) and the IC50 (MRC-5 cells) was 170 ± 20 µM. For the same compound, the IC50 [3] was no more than 230 µM and the “MIC A. baumannii” value (A. baumannii) was 6.25 µM (≈ 21.9 µg/mL).
